Literature values, collected in patent US20040175402A1, “Formulation” (priority 2001, published 2004).

Columns and labels:
[1] = test system: human breast cancer cells; conditions: human breast cancer cells in vitro

C[C@]12CC[C@@H]3c4ccc(O)cc4C[C@@H](CCCCCCCCC[S+]([O-])CCCC(F)(F)C(F)(F)F)[C@H]3[C@@H]1CC[C@@H]2O (stereo partly drawn) [Fulvestrant, 7α-[9-(4,4,5,5,5-Pentafluoropentylsulphinyl)nonyl]oestra-1,3-5(10)-triene-3,17β-diol]
block of uterotrophic action of oestradiol (rats): blocks completely the uterotrophic action of oestradiol | block of growth stimulatory action of oestradiol [1]: completely blocks the growth stimulatory action of oestradiol | block of uterotrophic action of oestradiol (mice): blocks completely the uterotrophic action of oestradiol | block of uterotrophic action of oestradiol (monkeys): blocks completely the uterotrophic action of oestradiol
